≈ marks a conversion by molar mass, not a printed value.
What was measured:
[1] = Comparative test of solubility; type: physicochemical; conditions: water, thermodynamic from solid
[2] = Comparative test of solubility; type: physicochemical; conditions: shaken 75 min; for solubility thermodynamic at 75 min: 200 mM potassium phosphate buffer, pH 7.4, aqueous buffer, read-out: Solibility to 200 mM potassium phosphate buffer; for solubility thermodynamic at 75 min / solubility at 75 min: thermodynamic from solid; for solubility at 75 min: JP-1 artificial gastric fluid, pH 1.2, simulated gastric fluid, JP-1 pH1.2 (artificial gastric fluid), 1 mg in 1 ml
Procedure: Experiment 3 (Comparative Test of Solubility)
1 mg of compounds were placed in 1 ml of medium (JP-1, […] potassium phosphate buffer) and was shaken on a shaking-incubator for 75 min. (1000 rpm). After centrifugation, concentration of supernatant was analyzed by HPLC.
JP1: pH1.2 (artificial gastric fluid: 35 mM NaCl, 84 mM HCl in water)
2.0 g of NaCl, 7.0 ml of HCl and water were mixed in a measuring flask (1000 ml).
200 mM potassium phosphate buffer: pH7.4
200 mM K2HPO4 and 200 mM KH2PO4 were mixed and adjusted to pH7.4 by using pH meter.

Male beagle dogs = test: Pharmacological test in dog: plasma glucose after oral administration; type: in vivo; conditions: AUC for 4 hr after administration, fasted male beagle dogs
Procedure: Pharmacological Experiment 2 (Pharmacological Test in Dog)
Male beagle dogs (BW 9.6-13.8 kg) were fasted overnight. Pre-dose blood sampling was performed from cephalic vein. The test drugs, which were suspended into 0.5% methylcellulose, were orally administrated (example 1 at 0.25, 0.5 and 1 mg/kg, and example 4, and compound B at 1 mg/kg). Control group was given 0.5% methylcellulose alone. Blood was taken every 0.5 or 1 hour after the drug dosing. Plasma sample were obtained by centrifugation, and the plasma glucose levels were measured by “Determiner GL-E” (Kyowa Medex Co., Ltd. Japan).

[3] = target: T1, recombinant human liver GK (Homo sapiens, UniProt P35557); test: Glucokinase-activating effect (Thio-NADH coupled assay with G6PDH); type: biochemical; conditions: 2.5 mM glucose, 30° C.
T1 construct: made in house; host or cells: E. coli
T1 sequence (P35557 1-466 isoform P35557-2): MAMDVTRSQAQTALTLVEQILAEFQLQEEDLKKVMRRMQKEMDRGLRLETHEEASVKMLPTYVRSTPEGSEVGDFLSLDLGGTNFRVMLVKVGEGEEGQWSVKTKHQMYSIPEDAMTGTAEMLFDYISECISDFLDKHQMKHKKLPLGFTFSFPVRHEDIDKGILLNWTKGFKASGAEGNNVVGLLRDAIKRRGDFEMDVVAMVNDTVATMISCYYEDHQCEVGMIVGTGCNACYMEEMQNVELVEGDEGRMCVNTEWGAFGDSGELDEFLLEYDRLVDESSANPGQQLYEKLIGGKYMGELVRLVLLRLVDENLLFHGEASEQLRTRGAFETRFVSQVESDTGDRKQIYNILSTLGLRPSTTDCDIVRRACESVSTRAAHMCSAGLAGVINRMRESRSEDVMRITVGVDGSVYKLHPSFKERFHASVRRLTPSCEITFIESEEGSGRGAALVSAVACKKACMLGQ
Text: Pharmacological Experiment 1 (Glucokinase-Activating Effect)
The excellent glucokinase-activating effect of the compounds of formula (I) may be determined by a method described in references (for example, Diabetes, Vol. 45, pp. 1671-1677, 1996), or in accordance with it.
The glucokinase activity may be determined not by directly measuring glucose-6-phosphate but by measuring the level of Thio-NADH, which is produced when a reporter enzyme, glucose-6-phosphate dehydrogenase produces phosphogluconolactone from glucose-6-phosphate, and based on the level, the degree of glucokinase activation by the compound tested may be determined.
In this assay, used was a recombinant human liver GK, which was expressed by E. coli as a FLAG fusion protein therein and was purified by ANTIFLAG M2 AFFINITY GEL (Sigma).
Using a flat-bottomed 96-well plate, the assay was carried out at 30° C. 69 μl of an assay buffer (25 mM Hepes Buffer/pH=7.2, 2 mM MgCl2, 1 mM ATP, 0.5 mM TNAD, 1 mM dithiothreitol) was put into the plate, and 1 μl of a DMSO solution of the compound or DMSO alone as a control was added thereto. Next, 20 μl of an enzyme mixture (FLAG-GK, 20 U/ml G6PDH) cooled in ice was added to it, and 10 μl of a substrate, 25 mM glucose was added to it, and the reaction was initiated (final glucose concentration=2.5 mM).
After the start of the reaction, the increase in the absorbance at 405 nm was measured for 12 minutes at intervals of 30 seconds, and the increase for the first 5 minutes was used for assessing the compound tested. FLAG-GK was added so that the absorbance increase after 5 minutes in the presence of 1% DMSO could be from 0.04 to 0.06.
The OD level of the DMSO control was set as 100%; and the OD level of the test compound at different concentrations was determined. From the OD level at each concentration, Emax (%) and EC50 (μM) were computed and used as the index of the GK-activating potency of the compound.

Structure (SMILES)	solubility at 75 min [1] [µg/mL]	solubility thermodynamic at 75 min ([2]; pH7.4, 1 mg in 1 ml) [µg/mL]	solubility at 75 min [2] [µg/mL]	% Reduction of plasma glucose AUC (Male beagle dogs; 1 mg/kg oral) [%]	% Reduction of plasma glucose AUC (Male beagle dogs; 0.25 mg/kg oral) [%]	% Reduction of plasma glucose AUC (Male beagle dogs; 0.5 mg/kg oral) [%]	EC50 [3] [nM]	Solibility to 200 mM potassium phosphate buffer ([2]; pH7.4, 1 mg in 1 ml) [µg/mL]	Emax ([3]; OD level of DMSO control set as 100%) [%]
Cc1nsc(NC(=O)c2nc(Sc3nncn3C)ccc2Sc2ccc(CCO)cc2)n1 [(A), reference compound]	2.4 (≈ 4.94 µM)	3.4 (≈ 7 µM)	6.2 (≈ 12.8 µM)	–	–	–	–	–	–
Cc1nsc(NC(=O)c2nc(Sc3nnc[nH]3)ccc2Sc2ccc(OCCN(C)C)cc2)n1 [Compound (B), reference compound]	–	–	–	7.4	–	–	–	–	–
Cc1nsc(NC(=O)c2nc(Sc3nncn3C)ccc2Sc2ccc(OCCN(C)C)cc2)n1 [Example 1, 3-({4-[2-(dimethylamino)ethoxy]phenyl}thio)-N-(3-methyl-1,2,4-thiadiazol-5-yl)-6-[(4-methyl-4H-1,2,4-triazol-3-yl)thio]pyridine-2-carboxamide]	15.2 (≈ 28.8 µM)	17.5 (≈ 33.1 µM)	> 1000	15.7	7.9	10.6	90	–	–
Cc1nsc(NC(=O)c2nc(Sc3nncn3C)ccc2Sc2ccc(OCCN3CCC[C@H]3C)cc2)n1 [Example 4]	47.4 (≈ 83.3 µM)	–	> 1000	26.8	–	–	150	47.3	–
Cc1nsc(NC(=O)c2nc(Sc3nncn3C)ccc2Sc2ccc(OC[C@@H]3CCCN3C)cc2)n1 [Example 7, 3-[(4-{[(2S)-1-methylpyrrolidin-2-yl]methoxy}phenyl)thio]-N-(3-methyl-1,2,4-thiadiazol-5-yl)-6-[(4-methyl-4H-1,2,4-triazol-3-yl)thio]pyridine-2-carboxamide]	583 (≈ 1050 µM)	308 (≈ 555 µM)	> 1000	–	–	–	60	–	–
Cc1nsc(NC(=O)c2nc(Sc3nncn3C)ccc2Sc2ccc(O[C@@H]3CCN(C(C)C)C3)cc2)n1 [Example 20, 3-[(4-{[(3R)-1-isopropylpyrrolidin-3-yl]oxy}phenyl)thio]-N-(3-methyl-1,2,4-thiadiazol-5-yl)-6-[(4-methyl-4H-1,2,4-triazol-3-yl)thio]pyridine-2-carboxamide]	127 (≈ 223 µM)	86.8 (≈ 153 µM)	> 1000	–	–	–	40	–	964
CCN(C)CCOc1ccc(Sc2ccc(Sc3nncn3C)nc2C(=O)Nc2nc(C)ns2)cc1 [Example 23, 3-[(4-{2-[ethyl(methyl)amino]ethoxy}phenyl)thio]-N-(3-methyl-1,2,4-thiadiazol-5-yl)-6-[(4-methyl-4H-1,2,4-triazol-3-yl)thio]pyridine-2-carboxamide]	208 (≈ 383 µM)	122 (≈ 226 µM)	> 1000	–	–	–	60	–	–
CCN(CC)CCOc1ccc(Sc2ccc(Sc3nncn3C)nc2C(=O)Nc2nc(C)ns2)cc1 [Example 24, 3-({4-[2-(diethylamino)ethoxy]phenyl}thio)-N-(3-methyl-1,2,4-thiadiazol-5-yl)-6-[(4-methyl-4H-1,2,4-triazol-3-yl)thio]pyridine-2-carboxamide]	230 (≈ 414 µM)	298 (≈ 536 µM)	> 1000	–	–	–	40	–	–
CCN1CC(Oc2ccc(Sc3ccc(Sc4nncn4C)nc3C(=O)Nc3nc(C)ns3)cc2)C1 [Example 25, 3-({4-[(1-ethylazetidin-3-yl)oxy]phenyl}thio)-N-(3-methyl-1,2,4-thiadiazol-5-yl)-6-[(4-methyl-4H-1,2,4-triazol-3-yl)thio]pyridine-2-carboxamide]	16.4 (≈ 30.3 µM)	13.8 (≈ 25.5 µM)	> 1000	42.1	–	–	50	–	–
Cc1nsc(NC(=O)c2nc(Sc3nncn3C)ccc2Sc2ccc(OCCN3CCCCC3)cc2)n1 [Example 26, N-(3-methyl-1,2,4-thiadiazol-5-yl)-6-[(4-methyl-4H-1,2,4-triazol-3-yl)thio]-3-{[4-(2-piperidin-1-ylethoxy)phenyl]thio}pyridine-2-carboxamide]	176 (≈ 309 µM)	239 (≈ 421 µM)	> 1000	–	–	–	70	–	–

— patent publication US8338460B2, “2-pyridinecarboxamide derivative having GK-activating effect” (MSD K. K., priority 2006, dated 2012)
